Here are results for 6 compounds from patent US20230357239A1, “PYRIDO[2,3-D]PYRIMIDIN-4-AMINES AS SOS1 INHIBITORS” (Bayer Aktiengesellschaft, priority 2020, published 2023).

For the assay, the target named is human SOS1 (SOS1) with human K-RasG12C (Homo sapiens (Human), UniProt Q07889). Briefly: hK-RasG12C interaction assay with hSOS1 (HTRF). It is filed as binding. Particulars: GST-hK-RasG12C and His-hSOS1, 60 min incubation at 20° C, mean, read-out: K-RasG12C - SOS interaction assay IC50 - [mol/l] (mean).
human SOS1 (SOS1) with human K-RasG12C, sequence (Q07889 564-1049): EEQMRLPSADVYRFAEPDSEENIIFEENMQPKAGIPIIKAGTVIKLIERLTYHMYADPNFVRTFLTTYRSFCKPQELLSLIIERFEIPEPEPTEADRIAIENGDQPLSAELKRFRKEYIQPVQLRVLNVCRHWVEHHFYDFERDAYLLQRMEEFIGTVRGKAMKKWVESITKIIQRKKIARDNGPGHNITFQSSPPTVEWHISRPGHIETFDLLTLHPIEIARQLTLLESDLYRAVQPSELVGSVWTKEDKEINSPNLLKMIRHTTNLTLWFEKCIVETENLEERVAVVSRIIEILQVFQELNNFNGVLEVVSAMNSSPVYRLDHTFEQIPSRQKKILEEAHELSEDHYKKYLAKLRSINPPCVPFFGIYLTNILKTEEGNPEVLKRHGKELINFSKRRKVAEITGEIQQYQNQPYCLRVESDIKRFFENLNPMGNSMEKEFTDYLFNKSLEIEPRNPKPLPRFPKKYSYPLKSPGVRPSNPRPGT

Consider `CC(=O)N1CCC(c2cc3c(N[C@H](C)c4cccc(C(F)(F)C(C)(C)O)c4F)nc(C)nc3nc2C)CC1` [Example 66, 1-{4-[4-({(1R)-1-[3-(1,1-difluoro-2-hydroxy-2-methylpropyl)-2-fluorophenyl]ethyl}amino)-2,7-dimethylpyrido[2,3-d]pyrimidin-6-yl]piperidin-1-yl}ethan-1-one], for which the IC50 came out at 3.18 nM.
Take `CC(=O)N1CCN(c2cc3c(N[C@H](C)c4cccc(C(F)(F)C(C)(C)O)c4F)nc(C)nc3nc2C)CC1` [Example 67, 1-{4-[4-({(1R)-1-[3-(1,1-difluoro-2-hydroxy-2-methylpropyl)-2-fluorophenyl]ethyl}amino)-2,7-dimethylpyrido[2,3-d]pyrimidin-6-yl]piperazin-1-yl}ethan-1-one]: the IC50 turned out to be 6.23 nM.
For `CC(=O)N1CCN(c2cc3c(N[C@H](C)c4cccc(C(F)(F)F)c4C)nc(C)nc3nc2C)C(=O)C1` [Example 68, 4-acetyl-1-[2,7-dimethyl-4-({(1R)-1-[2-methyl-3-(trifluoromethyl)phenyl]ethyl}amino)pyrido[2,3-d]pyrimidin-6-yl]piperazin-2-one] the value was 2.93 nM.
Consider `CC(=O)N1CC2(C1)CN(c1cc3c(N[C@H](C)c4cccc(C(F)F)c4F)nc(C)nc3nc1C(F)(F)F)C2` [Example 69, 1-{6-[4-({(1R)-1-[3-(difluoromethyl)-2-fluorophenyl]ethyl}amino)-2-methyl-7-(trifluoromethyl)pyrido[2,3-d]pyrimidin-6-yl]-2,6-diazaspiro[3.3]heptan-2-yl}ethan-1-one], for which the IC50 turned out to be 29.5 nM.
For `CC(=O)N1CC2(C1)CN(c1cc3c(N[C@H](C)c4cccc(C(F)(F)C(C)(C)O)c4F)nc(C)nc3nc1C(F)(F)F)C2` [Example 70, 1-{6-[4-({(1R)-1-[3-(1,1-difluoro-2-hydroxy-2-methylpropyl)-2-fluorophenyl]ethyl}amino)-2-methyl-7-(trifluoromethyl)pyrido[2,3-d]pyrimidin-6-yl]-2,6-diazaspiro[3.3]heptan-2-yl}ethan-1-one] the value was 5.47 nM; for `CC(=O)N1CC2(C1)CN(c1cc3c(N[C@H](C)c4cccc(C(F)(F)F)c4C)nc(C)nc3nc1C(F)(F)F)C2` [Example 71, 1-{6-[2-methyl-4-({(1R)-1-[2-methyl-3-(trifluoromethyl)phenyl]ethyl}amino)-7-(trifluoromethyl)pyrido[2,3-d]pyrimidin-6-yl]-2,6-diazaspiro[3.3]heptan-2-yl}ethan-1-one], 5.78 nM.
